Test results taken from PubChem BioAssay (NCI).
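Interpolation was linear, between the two tested concentrations surrounding the appropriate level; five concentrations were tested over 48 hours in 96-well plates. The concentration for full growth arrest is given as TGI.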

What was measured:
Experiment in all cases: NCI-60 cell line screen, 48 h
[1] = system: MCF7 breast
[2] = system: OVCAR-5 ovarian
[3] = system: DU-145 prostate
[4] = system: NCI-H226 lung
[5] = system: NCI-H522 lung
[6] = system: HOP-92 NSCLC
[7] = system: OVCAR-3 ovarian
[8] = system: HCT-116 colon
[9] = system: HCT-15 colon
[10] = system: SF-295 CNS
[11] = system: BT-549 breast
[12] = system: NCI-H460 lung
[13] = system: SK-OV-3 ovarian
[14] = system: SNB-75 CNS
[15] = system: A549 NSCLC
[16] = system: MDA-N
[17] = system: MALME-3M melanoma
[18] = system: SN12C renal
[19] = system: HS 578T breast
[20] = system: KM12 colon
[21] = system: IGROV1 ovarian
[22] = system: NCI-H23 lung
[23] = system: SK-MEL-28 melanoma
[24] = system: M14 melanoma
[25] = system: SNB-19 CNS
[26] = system: UACC-62 melanoma
[27] = system: LOX IMVI melanoma
[28] = system: CAKI-1 renal
[29] = system: RPMI-8226 leukemia
[30] = system: RXF 393 renal
[31] = system: 786-0 renal
[32] = system: MOLT-4 leukemia
[33] = system: SK-MEL-5 melanoma
[34] = system: T-47D breast
[35] = system: HL-60(TB) leukemia
[36] = system: SK-MEL-2 melanoma
[37] = system: PC-3 prostate
[38] = system: A498 renal
[39] = system: SF-539 CNS
[40] = system: UACC-257 melanoma
[41] = system: SR leukemia
[42] = system: COLO 205 colon
[43] = system: SW-620 colon
[44] = system: MDA-MB-231 breast
[45] = system: HT29 colon
[46] = system: ACHN renal
[47] = system: U251 CNS
[48] = system: MDA-MB-435
[49] = system: SF-268 CNS
[50] = system: HOP-62 NSCLC
[51] = system: EKVX NSCLC
[52] = system: TK-10 renal
[53] = system: OVCAR-8 ovarian
[54] = system: UO-31 renal
[55] = system: K-562 leukemia
[56] = system: NCI/ADR-RES ovarian
[57] = system: CCRF-CEM leukemia
[58] = system: HCC-2998 colon

## COc1cc(CSc2ccc(O)cc2)cc(OC)c1OC
[1]
  TGI: 66.6 µM
[2]
  TGI: > 100 µM
[3]
  TGI: > 100 µM
[4]
  TGI: > 100 µM
[5]
  TGI: > 100 µM
[6]
  TGI: 71.3 µM
[7]
  TGI: > 100 µM
[8]
  TGI: > 100 µM
[9]
  TGI: > 100 µM
[10]
  TGI: 95 µM
[11]
  TGI: 48.3 µM
[12]
  TGI: > 100 µM
[13]
  TGI: > 100 µM
[14]
  TGI: 86.2 µM
[15]
  TGI: > 100 µM
[16]
  TGI: > 100 µM
[17]
  TGI: > 100 µM
[18]
  TGI: > 100 µM
[19]
  TGI: > 100 µM
[20]
  TGI: > 100 µM
[21]
  TGI: > 100 µM
[22]
  TGI: > 100 µM
[23]
  TGI: > 100 µM
[24]
  TGI: > 100 µM
[25]
  TGI: > 100 µM
[26]
  TGI: > 100 µM
[27]
  TGI: > 100 µM
[28]
  TGI: > 100 µM
[29]
  TGI: 66.1 µM
[30]
  TGI: > 100 µM
[31]
  TGI: > 100 µM
[32]
  TGI: > 100 µM
[33]
  TGI: 34.9 µM
[34]
  TGI: 55.5 µM
[35]
  TGI: > 100 µM
[36]
  TGI: 67 µM
[37]
  TGI: > 100 µM
[38]
  TGI: > 100 µM
[39]
  TGI: > 100 µM
[40]
  TGI: > 100 µM
[41]
  TGI: > 100 µM
[42]
  TGI: > 100 µM
[43]
  TGI: > 100 µM
[44]
  TGI: > 100 µM
[45]
  TGI: > 100 µM
[46]
  TGI: > 100 µM
[47]
  TGI: > 100 µM
[48]
  TGI: > 100 µM
[49]
  TGI: > 100 µM
[50]
  TGI: > 100 µM
[51]
  TGI: > 100 µM
[52]
  TGI: > 100 µM
[53]
  TGI: > 100 µM
[54]
  TGI: 52 µM
[55]
  TGI: > 100 µM
[56]
  TGI: 83.6 µM

## CCOC(=O)c1nc2ccc(C(F)(F)F)cc2nc1Nc1cc(OC)c(OC)c(OC)c1
[1]
  TGI: > 100 µM
[2]
  TGI: > 100 µM
[3]
  TGI: > 100 µM
[5]
  TGI: > 100 µM
[6]
  TGI: > 100 µM
[7]
  TGI: > 100 µM
[57]
  TGI: > 100 µM
[8]
  TGI: > 100 µM
[9]
  TGI: > 100 µM
[10]
  TGI: > 100 µM
[11]
  TGI: > 100 µM
[12]
  TGI: > 100 µM
[13]
  TGI: > 100 µM
[14]
  TGI: > 100 µM
[15]
  TGI: > 100 µM
[16]
  TGI: > 100 µM
[17]
  TGI: > 100 µM
[18]
  TGI: > 100 µM
[19]
  TGI: > 100 µM
[20]
  TGI: > 100 µM
[21]
  TGI: > 100 µM
[22]
  TGI: > 100 µM
[23]
  TGI: > 100 µM
[24]
  TGI: > 100 µM
[25]
  TGI: > 100 µM
[26]
  TGI: > 100 µM
[27]
  TGI: > 100 µM
[29]
  TGI: > 100 µM
[30]
  TGI: > 100 µM
[31]
  TGI: > 100 µM
[32]
  TGI: > 100 µM
[33]
  TGI: > 100 µM
[34]
  TGI: > 100 µM
[35]
  TGI: > 100 µM
[37]
  TGI: > 100 µM
[38]
  TGI: > 100 µM
[39]
  TGI: > 100 µM
[40]
  TGI: > 100 µM
[41]
  TGI: > 100 µM
[42]
  TGI: > 100 µM
[43]
  TGI: > 100 µM
[44]
  TGI: > 100 µM
[45]
  TGI: > 100 µM
[46]
  TGI: > 100 µM
[48]
  TGI: > 100 µM
[49]
  TGI: > 100 µM
[50]
  TGI: > 100 µM
[51]
  TGI: > 100 µM
[52]
  TGI: > 100 µM
[53]
  TGI: > 100 µM
[54]
  TGI: > 100 µM
[55]
  TGI: > 100 µM
[58]
  TGI: > 100 µM
[56]
  TGI: > 100 µM
